According to patent US20250344698A1, “A METHOD OF CONTROLLING WEEDS” (SYNGENTA CROP PROTECTION AG, priority 2022, published 2025):

Legend:
Format in all cases: in vivo
[1] = system: Amaranthus palmeri population homozygous for a glycine at codon 128 in PPX2L ('128G'); experiment: Postemergence glasshouse test, dead or alive assessment, 128G population; details: 14 days after application; for Average % Survival of 14 repetitions: R128G
Excerpt: (§1) The commercial standard PPO inhibitor fomesafen and compound 8 of the present application were applied to three Amaranthus palmeri populations in order to determine the impact of mutations at codon 128 in PPX2L from the wild-type arginine to a glycine or methionine.
(§2) Seeds were sown in seed trays containing ericaceous compost and covered with vermiculite. When approximately 1 inch in height plants were transplanted 1 per pot into 3 inch diameter pots containing ericaceous compost. The pots were watered and maintained in a glasshouse providing a 16 H photoperiod of 180 μmol m^−2 s^−1 with temperatures of 24° C. day and 18° C. night and 65% relative humidity until 3 inches tall at which point the herbicides were applied at the use rates specified in Table 1 below to 14 individual plants per rate of each of the biotypes.
(§3) All treatments were applied as dilutions in reverse osmosis water and with the commercial adjuvant Adigor® at 0.5% by volume. Prior to dilution with water compound 8 was initially dissolved to a 5% solution in a solvent mixture comprising 11.12% Emulsogen EL 360, 44.44% Dowanol DPM and 44.44% N-methyl pyrrolidone. Herbicide applications were carried out in a track sprayer with a flat fan nozzle applying the herbicide treatments at a rate of 200 L/ha^−1.
(§4) After treatment, the plants were watered and maintained in a glasshouse providing a 16 H photoperiod of 180 μmol m^−2 s^−1 with temperatures of 24° C. day and 18° C. night and 65% relative humidity until 14 days after application at which point they were assessed on a ‘dead or alive’ basis. The plants still alive at this point were classed as surviving the herbicide application and the averaged results of this assessment are presented in Table 1.

[2] = system: Amaranthus palmeri population homozygous for a methionine at codon 128 in PPX2L ('128M'); experiment: Postemergence glasshouse test, dead or alive assessment, 128M population; details: 14 days after application; for use rate achieving complete control (i.e. no surviving plants): '128M' population, postemergence; for Average % Survival of 14 repetitions: R128M
Excerpt: as §1, §2, §3, §4

[3] = system: Amaranthus palmeri known PPO inhibitor sensitive population ('Sensitive'); experiment: Postemergence glasshouse test, dead or alive assessment, PPO inhibitor sensitive population; details: 14 days after application; for use rate achieving complete control (i.e. no surviving plants): 'Sensitive' population, postemergence; for Average % Survival of 14 repetitions: Sensitive
Excerpt: as §1, §2, §3, §4

Compound	Average % Survival of 14 repetitions ([1]; 0.25 g ai/ha^−1 postemergence)	Average % Survival of 14 repetitions ([1]; 0.5 g ai/ha^−1 postemergence)	Average % Survival of 14 repetitions ([1]; 1 g ai/ha^−1 postemergence)	Average % Survival of 14 repetitions ([1]; 2 g ai/ha^−1 postemergence)	Average % Survival of 14 repetitions ([1]; 4 g ai/ha^−1 postemergence)	Average % Survival of 14 repetitions ([1]; 8 g ai/ha^−1 postemergence)	Average % Survival of 14 repetitions ([1]; 16 g ai/ha^−1 postemergence)	Average % Survival of 14 repetitions ([1]; 32 g ai/ha^−1 postemergence)	Average % Survival of 14 repetitions ([1]; 64 g ai/ha^−1 postemergence)	Average % Survival of 14 repetitions ([1]; 128 g ai/ha^−1 postemergence)	use rate achieving complete control (i.e. no surviving plants) [2]	Average % Survival of 14 repetitions ([2]; 0.25 g ai/ha^−1 postemergence)	Average % Survival of 14 repetitions ([2]; 0.5 g ai/ha^−1 postemergence)	Average % Survival of 14 repetitions ([2]; 1 g ai/ha^−1 postemergence)	Average % Survival of 14 repetitions ([2]; 2 g ai/ha^−1 postemergence)	Average % Survival of 14 repetitions ([2]; 4 g ai/ha^−1 postemergence)	Average % Survival of 14 repetitions ([2]; 8 g ai/ha^−1 postemergence)	Average % Survival of 14 repetitions ([2]; 16 g ai/ha^−1 postemergence)	Average % Survival of 14 repetitions ([2]; 32 g ai/ha^−1 postemergence)	Average % Survival of 14 repetitions ([2]; 64 g ai/ha^−1 postemergence)	other results
CCOC(=O)C1(C)CC(c2cc(-n3c(=O)cc(C(F)(F)F)n(C)c3=O)c(F)cc2Cl)=NO1 (stereo not drawn) [Compound 8, 3-(2-chloro-4-fluoro-5-(3-methyl-2,6-dioxo-4-trifluoromethyl-3,6-dihydropyrimidin-1(2H)-yl)phenyl)-5-methyl-4,5-dihydroisoxazole-5-carboxylic acid ethyl ester]	100%	100%	100%	100%	93%	50%	0%	0%	0%	0%	16 g ai/ha^−1	100%	100%	100%	100%	79%	57%	0%	0%	0%	use rate achieving complete control (i.e. no surviving plants) ([1]; '128G' population, postemergence): 16 g ai/ha^−1; Average % Survival of 14 repetitions ([2]; 128 g ai/ha^−1 postemergence): 0%; use rate achieving complete control (i.e. no surviving plants) [3]: 8 g ai/ha^−1; Average % Survival of 14 repetitions ([3]; 0.25 g ai/ha^−1 postemergence): 100%; Average % Survival of 14 repetitions ([3]; 0.5 g ai/ha^−1 postemergence): 100%; Average % Survival of 14 repetitions ([3]; 1 g ai/ha^−1 postemergence): 50%; Average % Survival of 14 repetitions ([3]; 2 g ai/ha^−1 postemergence): 43%; Average % Survival of 14 repetitions ([3]; 4 g ai/ha^−1 postemergence): 14%; Average % Survival of 14 repetitions ([3]; 8 g ai/ha^−1 postemergence): 0%; Average % Survival of 14 repetitions ([3]; 16 g ai/ha^−1 postemergence): 0%; Average % Survival of 14 repetitions ([3]; 32 g ai/ha^−1 postemergence): 0%; Average % Survival of 14 repetitions ([3]; 64 g ai/ha^−1 postemergence): 0%; Average % Survival of 14 repetitions ([3]; 128 g ai/ha^−1 postemergence): 0%
CS(=O)(=O)NC(=O)c1cc(Oc2ccc(C(F)(F)F)cc2Cl)ccc1[N+](=O)[O-] [Fomesafen]	100%	100%	100%	100%	100%	100%	100%	93%	36%	36%	128 g ai/ha^−1	100%	100%	100%	100%	100%	100%	93%	43%	21%	individuals killed ([1]; '128G' population, 128 g ai/ha^−1): 5/14; Average % Survival of 14 repetitions ([2]; 128 g ai/ha^−1 postemergence): 0%; use rate achieving complete control (i.e. no surviving plants) [3]: 8 g ai/ha^−1; Average % Survival of 14 repetitions ([3]; 0.25 g ai/ha^−1 postemergence): 100%; Average % Survival of 14 repetitions ([3]; 0.5 g ai/ha^−1 postemergence): 100%; Average % Survival of 14 repetitions ([3]; 1 g ai/ha^−1 postemergence): 93%; Average % Survival of 14 repetitions ([3]; 2 g ai/ha^−1 postemergence): 71%; Average % Survival of 14 repetitions ([3]; 4 g ai/ha^−1 postemergence): 14%; Average % Survival of 14 repetitions ([3]; 8 g ai/ha^−1 postemergence): 0%; Average % Survival of 14 repetitions ([3]; 16 g ai/ha^−1 postemergence): 0%; Average % Survival of 14 repetitions ([3]; 32 g ai/ha^−1 postemergence): 0%; Average % Survival of 14 repetitions ([3]; 64 g ai/ha^−1 postemergence): 0%; Average % Survival of 14 repetitions ([3]; 128 g ai/ha^−1 postemergence): 0%
